# Columns and labels:
# [1] = tested on: Helicobacter pylori (ATCC43504) strain; assay: Antibacterial activity on Helicobacter pylori, paper disc clear zone; type: cell-based; conditions: 20 μl on 6 mm paper disc, 72 hours, pure inhibition zone
# Method: A Helicobacter pylori (ATCC43504) strain was smeared in a Brucella Agar medium containing 10% horse serum, and cultured for 3 days in an incubator of 37° C. and 10% CO: conditions. […] The Examples and Comparative Examples were cultured for 72 hours in an incubator of 37° C. and 10% CO: conditions, and then diameters of generated clear zones were measured and diameters of pure inhibition zones removing perforated diameters were shown in Table 3.
# [2] = tested on: Helicobacter pylori; assay: Selective antibacterial effect on Helicobacter pylori versus Escherichia coli and Staphylococcus aureus; type: cell-based; conditions: under the same condition
smiles,measurement,setting,value
"C=C[C@H]1[C@H](O[C@@H]2O[C@H](CO)[C@@H](O)[C@H](O)[C@H]2O)OC=C(C(=O)OC)[C@H]1CC(=O)O [Secoxyloganin, secoxyloganin]",Clear zone (mm),[1]; 0.1 mg/ml,5 mm
same,Clear zone (mm),[1]; 1 mg/ml,9 mm
same,Clear zone (mm),[1]; 10 mg/ml,13 mm
same,selective antibacterial effect on Helicobacter pylori than the antibacterial effect on Escherichia coli and Staphylococcus aureus,[2],≥ 20 times

# Source: patent US12397031B2, “Lonicera japonica flower water extract-containing pharmaceutical composition for preventing or treating Helicobacter pylori infection” (GREEN CROSS WELLBEING CORPORATION, priority 2018, dated 2025)
